Measurements published in publication PMC11355195 (Life, 2024).
Values after ≈ are worked out from the molar mass of the structure shown.

Tests used:
DPPH scavenging capacity = details: 0.1 mM DPPH
Description: The method utilized to test the compound’s efficacy in scavenging DPPH radicals was based on protocols detailed in references, with minor changes. The test was completed in duplicate for each concentration. A solution of 0.1 mM DPPH (2,2-diphenyl-1-picrylhydrazyl) was produced, and the compounds were evaluated at different concentrations ranging from 1 to 500 µg/mL. Ascorbic acid served as the positive control with concentrations ranging from 0.01 to 300 µg/mL [35].

ABTS scavenging activity = assay: ABTS scavenging activity
Description: With a few minor adjustments, the procedure published by Re et al., was used to evaluate the test samples’ capacity to scavenge radicals against the ABTS (2,2′-azinobis-3-ethylbenzothiazoline-6-sulphonate) radical cation.

[1] = Oxygen radical absorbance capacity (ORAC); details: Trolox equivalents
Description: The ORAC (Oxygen Radical Absorbance Capacity) test was carried out using a modified version of the procedure reported by Huang et al.. This test examines the antioxidant capacity of compounds by examining their ability to neutralize oxygen radicals. The method was carried out utilizing a 96-well microplate format. First, 150 µL of fluorescein solution, produced as 8 × 10^−8 M fluorescein in 0.075 M phosphate buffer (pH 7.4), were dispersed to each well. Fluorescein is a fluorescent probe whose fluorescence lowers when it reacts with radicals. Next, 25 µL of the substance or mixture to be evaluated was added to the corresponding wells. Wells containing 25 µL of phosphate buffer served as blanks, and wells containing 25 µL of Trolox solution (from 10 to 100 µm) were utilized as standards. Control wells containing 50 µL phosphate buffer without any radicals were also added to provide a baseline. The reaction was initiated by adding 25 µL of a freshly produced solution of AAPH (2,2′-azobis(2-methylpropionamidine) dihydrochloride) at a concentration of 165.94 mM in phosphate buffer to each well, except for the control wells, at a temperature of 37 °C. AAPH creates peroxyl radicals that induce oxidative stress in the fluorescein solution, simulating free-radical attack. […] The fluorescence in-tensity of the mixture was then monitored at regular intervals for 120 min.

COX-1 = biological target: T1, COX-1 (Ovis aries, UniProt P05979); assay: COX-1-catalyzed prostaglandin production inhibition; format: biochemical, ram
T1 construct: The COX-1 enzyme was produced from ram seminal vesicles; purchased Cayman Chemical Company, Ann Arbor, MI, USA; host or cells: ram seminal vesicles (tissue)
T1 sequence (P05979 25-600): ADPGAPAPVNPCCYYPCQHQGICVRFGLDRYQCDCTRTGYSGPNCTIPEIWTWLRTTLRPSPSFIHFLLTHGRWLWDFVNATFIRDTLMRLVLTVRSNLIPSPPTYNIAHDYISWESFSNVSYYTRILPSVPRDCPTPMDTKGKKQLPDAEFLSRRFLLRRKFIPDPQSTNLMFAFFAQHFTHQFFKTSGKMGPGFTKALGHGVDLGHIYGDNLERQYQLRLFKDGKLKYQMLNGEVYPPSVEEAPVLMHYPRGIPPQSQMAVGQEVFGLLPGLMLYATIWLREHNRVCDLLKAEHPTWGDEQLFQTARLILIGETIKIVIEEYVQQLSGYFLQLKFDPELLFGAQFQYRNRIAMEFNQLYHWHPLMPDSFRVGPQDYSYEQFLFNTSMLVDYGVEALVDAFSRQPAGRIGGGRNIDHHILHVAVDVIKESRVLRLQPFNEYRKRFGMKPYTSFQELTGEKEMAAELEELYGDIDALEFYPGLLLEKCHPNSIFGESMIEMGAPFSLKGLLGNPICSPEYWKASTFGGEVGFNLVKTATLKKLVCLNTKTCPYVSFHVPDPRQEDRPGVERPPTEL
Description: The COX inhibitory effects of the substances were examined using a COX-1/COX-2-catalyzed prostaglandin production test, using a modified approach by Futaki et al.. The chemicals were dissolved in 4% DMSO to a final concentration of 100 µg/mL.
In this test, one unit of COX-1 or COX-2 enzyme was suspended in a 0.1 M Tris-HCl buffer (pH 7.5) containing hematin ([…]) and phenol (2 mM) as cofactors. The COX-1 enzyme was produced from ram seminal vesicles, while COX-2 was taken from sheep placenta with a purity of 70% (both from Cayman Chemical Company, Ann Arbor, MI, USA). The reaction mixture was preincubated with either the solvent vehicle (4% DMSO) or the test solution for 2 min at 37 °C. […] Arachidonic acid, tagged with radioactive carbon ([1–14C]), serves as a substrate for the COX enzymes. The mixture was then incubated for an additional 2 min at 37 °C. […] The organic solvent phase was removed, and the PGE2 level in the remaining aqueous phase was quantified using a radioimmunoassay with a liquid scintillation counter, which measures the radioactivity (disintegrations per minute, DPM) of the [1–14C]-labeled PGE2. The percentage inhibition of COX-catalyzed prostaglandin production by the test compounds was estimated by comparing the radioactivity of the samples with the solvent vehicle controls. […]

MCF-7 = assay: MTT cell viability, MCF-7; format: cell-based, Human
Description: (§1) These cell lines were selected to represent distinct sub-types of breast cancer for extensive investigation. […] The medium was added with 10% heat-inactivated fetal calf serum (FCS) to supply vital growth hormones and nutrients necessary for cell proliferation. Additionally, 1% penicillin streptomycin was administered to avoid bacterial contamination, ensuring the sterility and integrity of the cell cultures. The cell cultures were maintained at 37 °C in a humidified environment containing 5% CO2. This controlled environment mimics physiological conditions in the human body, supporting optimal cell development and function. The humidified atmosphere prevents medium evaporation, while the 5% CO2 concentration maintains optimal pH values in the culture medium. These specialized circumstances and methods ensure that the breast cancer cell lines remain healthy and viable for experimental procedures, delivering dependable and reproducible results for research projects. The standard protocols followed for cultivating these cells are crucial for generating consistent and reliable data. Using well-characterized cell lines from a credible source like ATCC ensures the re-liability and comparability of the experimental outcomes.
(§2) This approach determines cell viability based on the ability of living cells to decrease MTT to a purple, water-insoluble formazan product. Cells were planted in 96-well plates at a density of 1 × 10^4 cells per well in 100 μL of complete culture media, which provides all necessary nutrients for cell growth. […] The cells were then treated with the compounds for 24, 48, and 72 h to determine the effect on cell viability over varied time intervals. Following each incubation time, 20 μL of MTT solution (at a concentration of 5 mg/mL in PBS) were applied to each well. The plates were further incubated for 4 h at 37 °C, during which time live cells decrease the MTT to formazan, creating purple crystals. At the end of the incubation, the medium containing the MTT was carefully aspirated, leaving only the formazan crystals in the bottom of the wells. […]

MDA-MB-231 = assay: MTT cell viability, MDA-MB-231; format: cell-based, Human
Description: as §1, §2

MDA-MB-436 = assay: MTT cell viability, MDA-MB-436; format: cell-based, Human
Description: as §1, §2

MCF-7 cells = details: at 24 and 48 h; ref Mari et al. (2021) [78]; read-out: IC50, survival of MCF-7 cells; cited from earlier work
[2] = test system: peripheral blood mononuclear cells (PBMC); assay: MTT cell viability, PBMC (normal cell control); format: cell-based; details: MTT test, 72 h of treatment (Figure 3)
Description: This approach determines cell viability based on the ability of living cells to decrease MTT to a purple, water-insoluble formazan product. Cells were planted in 96-well plates at a density of 1 × 10^4 cells per well in 100 μL of complete culture media, which provides all necessary nutrients for cell growth. […] The cells were then treated with the compounds for 24, 48, and 72 h to determine the effect on cell viability over varied time intervals. Following each incubation time, 20 μL of MTT solution (at a concentration of 5 mg/mL in PBS) were applied to each well. The plates were further incubated for 4 h at 37 °C, during which time live cells decrease the MTT to formazan, creating purple crystals. At the end of the incubation, the medium containing the MTT was carefully aspirated, leaving only the formazan crystals in the bottom of the wells. To dissolve these crystals, 100 μL of DMSO were administered to each well. […] This formula quantifies the reduction in cell viability in response to the treatments compared to the control. […] Cisplatin, a known anticancer drug, was used as a reference drug at varying concentrations from 0.01 to 50 µg/mL.

[3] = MTT test, 72 h of treatment (Figure 3)

DPPH Scavenging Capacity IC50 (DPPH scavenging capacity) [µg/mL]	SMILES	ABTS Scavenging Activity IC50 (ABTS scavenging activity) [µg/mL]	Oxygen Radical Absorbance Capacity [1] [mmol TE/g]	IC50 (COX-1) [µM]	IC50 (MCF-7; Homo sapiens, MCF7, 72 h, read-out: IC50 Value ± SD, MCF-7) [µg/mL]	IC50 (MDA-MB-231; Homo sapiens, MDA-MB-231, 72 h, read-out: IC50 Value ± SD, MDA-MB-231) [µg/mL]	IC50 (MDA-MB-436; Homo sapiens, MDA-MB-436, 72 h, read-out: IC50 Value ± SD, MDA-MB-436) [µg/mL]	IC50 (MCF-7 cells) [µM]	IC50 Value ± SD, MCF-7 (MCF-7; [3]) [µg/mL]	IC50 Value ± SD, MDA-MB-231 (MDA-MB-231; [3]) [µg/mL]	IC50 Value ± SD, MDA-MB-436 (MDA-MB-436; [3]) [µg/mL]	IC50 Value ± SD, PBMC [2] [µg/mL]
188.24 ± 6.46	O=C1O[C@H]([C@@H](O)CO)C(O)=C1O [Ascorbic acid (AA), Ascorbic acid, reference compound]	25.20 ± 3.06	–	–	–	–	–	–	–	–	–	–
–	Cc1ccc(C(C)C)cc1O [Carvacrol, 2-methyl-5-(1-methylethyl)phenol]	107.88 ± 4.46	3.535 ± 0.127	470	5.93 ± 0.77 (≈ 39.5 µM)	9.76 ± 0.23 (≈ 65 µM)	9.5 ± 1.15 (≈ 63.2 µM)	200	–	–	–	–
–	N.N.[Cl][Pt][Cl] [Cisplatin, reference compound]	–	–	–	–	–	–	–	8.43 ± 0.92	4.60 ± 0.66	3.96 ± 0.59	25.36 ± 1.40
